Measurements from patent publication US12187758B2 (ROME Therapeutics, Inc., priority 2022, dated 2025).

Columns and labels:
Assay type in all cases: cell-based
[1] = tested on: SDH-A (succinate dehydrogenase-A); experiment: Mitochondria toxicity assay with PC3 cells, in-cell ELISA SDH-A; details: 5 days treatment
Outline: (§1)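 This in-cell ELISA was run on fixed, permeabilized PC3 cells after 5-day exposure to titrated compound, with cytotoxicity measured on a duplicate plate. Results are reported as categories A (<1.0 μM) to E (>100.0 μM).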

THP1-Dual KO-TREX1 cells = experiment: THP1 TREX1 KO inhibition assay (type 1 interferon response); details: Homo sapiens, 144 h, type 1 interferon (QUANTI-LUC), 1 μM 5-aza-2′-deoxycytidine, six days
Outline: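 THP1-Dual KO-TREX1 cells were treated with a dose titration of compound, alone or with 1 μM 5-aza-2′-deoxycytidine, for six days at 37 °C. Type 1 interferon was read as secreted luciferase (QUANTI-LUC) in the supernatant, and viability by CellTiter-Glo luminescence.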

PC3 cells = experiment: Mitochondria toxicity assay with PC3 cells, cytotoxicity (Cell Titer Glo); details: Homo sapiens, PC-3, 120 h, 5 days treatment
Outline: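 Cytotoxicity reported in μM bins, A <1.0 through E >100.0. Measured via Cell Titer Glo luminescence (30 min, room temperature) after 5-day dose-titration treatment of PC3 cells, grown in F-12K/10% FBS, at 37° C, 5% CO2.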

[2] = Mitochondria toxicity assay with PC3 cells, in-cell ELISA COX-1; details: 5 days treatment
Outline: as §1

IC50 (THP1-Dual KO-TREX1 cells)	Compound	IC50 [1]	IC50 (PC3 cells)	IC50 [2]
> 1 µM	C[C@@H]1[C@H](n2ccc(N)nc2=O)O[C@@](CO)(CCl)[C@H]1O [Compound 12, 4-amino-1-((2R,3S,4S,5R)-5-(chloromethyl)-4-hydroxy-5-(hydroxymethyl)-3-methyltetrahydrofuran-2-yl)pyrimidin-2(1H)-one]	> 100 µM	> 100 µM	> 100 µM
> 1 µM	CO[C@@H]1[C@H](n2ccc(N)nc2=O)O[C@@](CO)(CCl)[C@H]1O [Compound 13, 4-amino-1-((2R,3S,4S,5R)-5-(chloromethyl)-4-hydroxy-5-(hydroxymethyl)-3-methoxytetrahydrofuran-2-yl)pyrimidin-2(1H)-one]	> 100 µM	> 100 µM	> 100 µM
0.1 to 0.25 µM	Nc1nc(=O)n([C@H]2C[C@H](O)[C@](CO)(CCl)O2)cc1F [Compound 14, 4-amino-1-((2R,4S,5R)-5-(chloromethyl)-4-hydroxy-5-(hydroxymethyl)tetrahydrofuran-2-yl)-5-fluoropyrimidin-2(1H)-one]	> 100 µM	> 100 µM	> 100 µM
> 1 µM	Nc1ncnc2c1ncn2[C@H]1C[C@H](O)[C@](CO)(CCl)O1 [Compound 15, (2R,3S,5R)-5-(6-amino-9H-purin-9-yl)-2-(chloromethyl)-2-(hydroxymethyl)tetrahydrofuran-3-ol]	> 100 µM	> 100 µM	> 100 µM
> 1 µM	Nc1ccn([C@H]2C[C@H](O)[C@](CO)(C3CC3)O2)c(=O)n1 [Compound 16, 4-amino-1-((2R,4S,5R)-5-cyclopropyl-4-hydroxy-5-(hydroxymethyl)tetrahydrofuran-2-yl)pyrimidin-2(1H)-one]	> 100 µM	> 100 µM	> 100 µM
> 1 µM	C[C@@H]1[C@H](n2ccc(N)nc2=O)O[C@](C)(CO)[C@H]1O [Compound 19, 4-amino-1-((2R,3S,4S,5R)-4-hydroxy-5-(hydroxymethyl)-3,5-dimethyltetrahydrofuran-2-yl)pyrimidin-2(1H)-one]	10 to 50 µM	50 to 100 µM	10 to 50 µM
> 1 µM	CC[C@]1(CO)O[C@@H](n2ccc(N)nc2=O)C[C@@H]1O [Compound 44, 4-amino-1-((2R,4S,5R)-5-ethyl-4-hydroxy-5-(hydroxymethyl)tetrahydrofuran-2-yl)pyrimidin-2(1H)-one]	> 100 µM	> 100 µM	> 100 µM
> 1 µM	CC[C@]1(CO)O[C@@H](n2ccc(N)nc2=O)[C@@H](F)[C@@H]1O [Compound 51, 4-amino-1-((2R,3S,4R,5R)-5-ethyl-3-fluoro-4-hydroxy-5-(hydroxymethyl)tetrahydrofuran-2-yl)pyrimidin-2(1H)-one]	> 100 µM	> 100 µM	10 to 50 µM
> 1 µM	[N-]=[N+]=N[C@]1(CO)O[C@@H](n2cc(F)c(N)nc2=O)C[C@@H]1O [Compound 61, 4-amino-1-((2R,4S,5R)-5-azido-4-hydroxy-5-(hydroxymethyl)tetrahydrofuran-2-yl)-5-fluoropyrimidin-2(1H)-one]	> 100 µM	> 100 µM	> 100 µM
0.25 to 1 µM	Nc1nc(=O)n([C@@H]2O[C@@](CO)(CCl)[C@@H](O)[C@@H]2F)cc1F [Compound 67, 4-amino-1-[(2R,3S,4R,5R)-5-(chloromethyl)-3-fluoro-4-hydroxy-5-(hydroxymethyl)oxolan-2-yl]-5-fluoropyrimidin-2-one]	> 100 µM	> 100 µM	> 100 µM
> 1 µM	Nc1nc(=O)n([C@@H]2O[C@@](CO)(CF)[C@@H](O)[C@@H]2O)cc1F [Compound 72, 4-amino-5-fluoro-1-((2R,3S,4S,5R)-5-(fluoromethyl)-3,4-dihydroxy-5-(hydroxymethyl)tetrahydrofuran-2-yl)pyrimidin-2(1H)-one]	> 100 µM	50 to 100 µM	50 to 100 µM
0.25 to 1 µM	Nc1nc(=O)n([C@@H]2O[C@@](CO)(CF)[C@@H](O)[C@@H]2F)cc1F [Compound 85, 4-amino-5-fluoro-1-[(2R,3S,4R,5R)-3-fluoro-5-(fluoromethyl)-4-hydroxy-5-(hydroxymethyl)oxolan-2-yl] pyrimidin-2-one]	> 100 µM	> 100 µM	> 100 µM
0.25 to 1 µM	Nc1nc(=O)n([C@H]2C[C@H](O)[C@](CO)(CBr)O2)cc1F [Compound 88, 4-amino-1-((2R,4S,5R)-5-(bromomethyl)-4-hydroxy-5-(hydroxymethyl)tetrahydrofuran-2-yl)-5-fluoropyrimidin-2(1H)-one]	> 100 µM	> 100 µM	10 to 50 µM

Compound	IC50 (THP1-Dual KO-TREX1 cells)	IC50 [1]	IC50 (PC3 cells)	IC50 [2]
Nc1ccn([C@H]2C[C@H](O)[C@](CO)(CCl)O2)c(=O)n1 [Compound 2, 4-amino-1-((2R,4S,5R)-5-(chloromethyl)-4-hydroxy-5-(hydroxymethyl)tetrahydrofuran-2-yl)pyrimidin-2(1H)-one]	0.05 to 0.1 µM	> 100 µM	> 100 µM	< 1 µM
C#C[C@]1(CO)O[C@@H](n2cnc3c(N)nc(Cl)nc32)C[C@@H]1O [Compound 25]	> 1 µM	> 100 µM	> 100 µM	50 to 100 µM
Nc1ccn([C@@H]2O[C@@](CO)(CCl)[C@@H](O)[C@@H]2F)c(=O)n1 [Compound 40, 4-amino-1-((2R,3S,4R,5R)-5-(chloromethyl)-3-fluoro-4-hydroxy-5-(hydroxymethyl)tetrahydrofuran-2-yl)pyrimidin-2(1H)-one]	> 1 µM	> 100 µM	> 100 µM	> 100 µM
